Numbers after ± are expanded uncertainties.

By refractive index is commonly meant a measure of how strongly the sample bends light.

The series in a line: refractive index (Na D-line) (dimensionless). As to conditions: 293.15 K; 101.33 kPa; Liquid; Standard Abbe refractometry.
Regarding `O` [water], the refractive index stood at 1.3328 ± 0.0024.
The value for `CC(=O)O` [acetic acid] was 1.3717 ± 0.0024.
In the case of `CCO` [ethanol], the refractive index was determined as 1.3616 ± 0.0024.
The value for `C=COC(C)=O` [vinyl acetate] was 1.3926 ± 0.0024.

The record behind these values is the NIST ThermoML archive (doi:10.1021/acs.jced.6b00794).
